Assay results: patent US20230085307A1, “PYRIDAZINONE COMPOUND AND HERBICIDE” (NISSAN CHEMICAL CORPORATION, priority 2019, published 2023)

What was measured:
barnyard grass [1] = assay: Test Example 3: herbicidal effect by foliage application, Wagner pot (Table 18, symbol H); type: in vivo, barnyard grass (Echinochloa crus-galli); conditions: 320 g/ha
Procedure, shortened: (§1)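 Plants were sown in alluvial soil held under 0.1–0.5 cm standing water and grown 14 days in a greenhouse at 25–30 °C. An emulsifiable formulation, water-diluted to the set dose, was then sprayed onto the foliage, and effects were scored three weeks later using previously defined criteria.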

Chinese sprangletop = assay: Test Example 3: herbicidal effect by foliage application, Wagner pot (Table 18, symbol D); type: in vivo, chinese sprangletop (Leptochloa chinensis); conditions: 320 g/ha
Procedure, shortened: as §1

rice flat sedge = assay: Test Example 3: herbicidal effect by foliage application, Wagner pot (Table 18, symbol E); type: in vivo, rice flat sedge (Cyperus iria); conditions: 320 g/ha
Procedure, shortened: as §1

southern crabgrass [2] = assay: Test Example 4: herbicidal effect by soil treatment (Table 19, symbol F); type: in vivo, southern crabgrass (Digitaria ciliaris); conditions: AAH 320 g/ha
Procedure, shortened: (§2)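 Step 1: sow seeds in sterilized diluvial soil, cover ~1.5 cm. Step 2: spray diluted emulsion onto soil surface at predetermined rate. Step 3: greenhouse, 25–30° C, three weeks. Step 4: grade effect on each plant by earlier criteria.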

green foxtail [3] = assay: Test Example 4: herbicidal effect by soil treatment (Table 19, symbol G); type: in vivo, green foxtail (Setaria viridis); conditions: AAH 320 g/ha
Procedure, shortened: as §2

barnyard grass [4] = assay: Test Example 4: herbicidal effect by soil treatment (Table 19, symbol H); type: in vivo, barnyard grass (Echinochloa crus-galli); conditions: AAH 320 g/ha
Procedure, shortened: as §2

wild oat [5] = assay: Test Example 4: herbicidal effect by soil treatment (Table 19, symbol I); type: in vivo, wild oat (Avena fatua); conditions: AAH 320 g/ha
Source text: (§3) [Test Example 4] Herbicidal Effect Test by Soil Treatment
(§4) Sterilized diluvial soil was placed in a plastic box having a length of 21 cm, a width of 13 cm, and a depth of 7 cm. The seeds of each of southern crabgrass, green foxtail, barnyard grass, wild oat, blackgrass, Italian ryegrass, windgrass, velvetleaf, redroot pigweed, lambsquarters, chickweed, false cleavers, persian speedwell, corn, soybean, rice, wheat, beet, and rapeseed were sowed in a spot-like manner and covered with the soil having a thickness of about 1.5 cm. Subsequently, the emulsion agent of the compound of the present invention prepared according to Formulation Example 2 was diluted with water so as to achieve a predetermined herbicide amount, and the diluted emulsion agent was uniformly applied to the surface of the soil with a small-sized spray. The plastic box was placed in a greenhouse at 25° C. to 30° C. for growth of the plants. Three weeks after the herbicide application, the effect of the herbicide on each plant was evaluated according to the criteria of Test Example 1.

blackgrass [6] = assay: Test Example 4: herbicidal effect by soil treatment (Table 19, symbol J); type: in vivo, blackgrass (Alopecurus myosuroides); conditions: AAH 320 g/ha
Source text: as §3, §4

Italian ryegrass [7] = assay: Test Example 4: herbicidal effect by soil treatment (Table 19, symbol K); type: in vivo, Italian ryegrass (Lolium multiflorum); conditions: AAH 320 g/ha
Source text: as §3, §4

windgrass [8] = assay: Test Example 4: herbicidal effect by soil treatment (Table 19, symbol L); type: in vivo, windgrass (Apera spica-venti); conditions: AAH 320 g/ha
Source text: as §3, §4

velvetleaf [9] = assay: Test Example 4: herbicidal effect by soil treatment (Table 19, symbol M); type: in vivo, velvetleaf (Abutilon theophrasti); conditions: AAH 320 g/ha
Procedure, shortened: as §2

redroot pigweed [10] = assay: Test Example 4: herbicidal effect by soil treatment (Table 19, symbol N); type: in vivo, redroot pigweed (Amaranthus retroflexus); conditions: AAH 320 g/ha
Procedure, shortened: as §2

lambsquarters [11] = assay: Test Example 4: herbicidal effect by soil treatment (Table 19, symbol O); type: in vivo, lambsquarters (Chenopodium album); conditions: AAH 320 g/ha
Procedure, shortened: as §2

chickweed [12] = assay: Test Example 4: herbicidal effect by soil treatment (Table 19, symbol P); type: in vivo, common chickweed (Stellaria media); conditions: AAH 320 g/ha
Source text: as §3, §4

southern crabgrass [13] = assay: Test Example 5: herbicidal effect by foliage application, plastic box (Table 20, symbol F); type: in vivo, southern crabgrass (Digitaria ciliaris); conditions: foliage application, AAH 320 g/ha, three weeks after application
Procedure, shortened: (§5)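 Foliar spray test: emulsion formulation diluted in water to a set application rate, sprayed onto 14-day-old plants raised in diluvial soil at 25° C to 30° C under glass. Both herbicidal effect and crop effect rated visually three weeks later.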

green foxtail [14] = assay: Test Example 5: herbicidal effect by foliage application, plastic box (Table 20, symbol G); type: in vivo, green foxtail (Setaria viridis); conditions: foliage application, AAH 320 g/ha, three weeks after application
Procedure, shortened: as §5

barnyard grass [15] = assay: Test Example 5: herbicidal effect by foliage application, plastic box (Table 20, symbol H); type: in vivo, barnyard grass (Echinochloa crus-galli); conditions: foliage application, AAH 320 g/ha, three weeks after application
Procedure, shortened: as §5

wild oat [16] = assay: Test Example 5: herbicidal effect by foliage application, plastic box (Table 20, symbol I); type: in vivo, wild oat (Avena fatua); conditions: foliage application, AAH 320 g/ha, three weeks after application
Procedure, shortened: as §5

blackgrass [17] = assay: Test Example 5: herbicidal effect by foliage application, plastic box (Table 20, symbol J); type: in vivo, blackgrass (Alopecurus myosuroides); conditions: foliage application, AAH 320 g/ha, three weeks after application
Procedure, shortened: as §5

Italian ryegrass [18] = assay: Test Example 5: herbicidal effect by foliage application, plastic box (Table 20, symbol K); type: in vivo, Italian ryegrass (Lolium multiflorum); conditions: foliage application, AAH 320 g/ha, three weeks after application
Procedure, shortened: as §5

windgrass [19] = assay: Test Example 5: herbicidal effect by foliage application, plastic box (Table 20, symbol L); type: in vivo, windgrass (Apera spica-venti); conditions: foliage application, AAH 320 g/ha, three weeks after application
Procedure, shortened: as §5

velvetleaf [20] = assay: Test Example 5: herbicidal effect by foliage application, plastic box (Table 20, symbol M); type: in vivo, velvetleaf (Abutilon theophrasti); conditions: foliage application, AAH 320 g/ha, three weeks after application
Procedure, shortened: as §5

redroot pigweed [21] = assay: Test Example 5: herbicidal effect by foliage application, plastic box (Table 20, symbol N); type: in vivo, redroot pigweed (Amaranthus retroflexus); conditions: foliage application, AAH 320 g/ha, three weeks after application
Procedure, shortened: as §5

lambsquarters [22] = assay: Test Example 5: herbicidal effect by foliage application, plastic box (Table 20, symbol O); type: in vivo, lambsquarters (Chenopodium album); conditions: foliage application, AAH 320 g/ha, three weeks after application
Procedure, shortened: as §5

chickweed [23] = assay: Test Example 5: herbicidal effect by foliage application, plastic box (Table 20, symbol P); type: in vivo, common chickweed (Stellaria media); conditions: foliage application, AAH 320 g/ha, three weeks after application
Procedure, shortened: as §5

persian speedwell = assay: Test Example 5: herbicidal effect by foliage application, plastic box (Table 20, symbol R); type: in vivo, Persian speedwell (Veronica persica); conditions: foliage application, AAH 320 g/ha, three weeks after application
Procedure, shortened: as §5

Cc1nn(C)c(=O)c(-c2c(-c3ccc([Si](C)(C)C)cc3)sc3ccccc23)c1O [1-153]
herbicidal effect on H (barnyard grass), rating 0-5 (barnyard grass [1]): 4 (Herbicidal rate of 70% or more and less than 90%) | herbicidal effect on D (Chinese sprangletop), rating 0-5 (Chinese sprangletop): 2 (Herbicidal rate of 20% or more and less than 40%) | herbicidal effect on E (rice flat sedge), rating 0-5 (rice flat sedge): 3 (Herbicidal rate of 40% or more and less than 70%) | F: southern crabgrass, herbicidal effect rating (southern crabgrass [2]): 2 (Herbicidal rate of 20% or more and less than 40%) | G: green foxtail, herbicidal effect rating (green foxtail [3]): 3 (Herbicidal rate of 40% or more and less than 70%) | H: barnyard grass, herbicidal effect rating (barnyard grass [4]): 0 (Herbicidal rate of 5% or less (almost no effect)) | I: wild oat, herbicidal effect rating (wild oat [5]): 0 (Herbicidal rate of 5% or less (almost no effect)) | J: blackgrass, herbicidal effect rating (blackgrass [6]): 0 (Herbicidal rate of 5% or less (almost no effect)) | K: Italian ryegrass, herbicidal effect rating (Italian ryegrass [7]): 0 (Herbicidal rate of 5% or less (almost no effect)) | L: windgrass, herbicidal effect rating (windgrass [8]): 0 (Herbicidal rate of 5% or less (almost no effect)) | M: velvetleaf, herbicidal effect rating (velvetleaf [9]): 0 (Herbicidal rate of 5% or less (almost no effect)) | N: redroot pigweed, herbicidal effect rating (redroot pigweed [10]): 3 (Herbicidal rate of 40% or more and less than 70%) | O: lambsquarters, herbicidal effect rating (lambsquarters [11]): 5 (Herbicidal rate of 90% or more (almost completely withered)) | P: chickweed, herbicidal effect rating (chickweed [12]): 0 (Herbicidal rate of 5% or less (almost no effect)) | F: southern crabgrass, herbicidal effect (southern crabgrass [13]): 0 (Herbicidal rate of 5% or less (almost no effect)) | G: green foxtail, herbicidal effect (green foxtail [14]): 3 (Herbicidal rate of 40% or more and less than 70%) | H: barnyard grass, herbicidal effect (barnyard grass [15]): 0 (Herbicidal rate of 5% or less (almost no effect)) | I: wild oat, herbicidal effect (wild oat [16]): 0 (Herbicidal rate of 5% or less (almost no effect)) | J: blackgrass, herbicidal effect (blackgrass [17]): 0 (Herbicidal rate of 5% or less (almost no effect)) | K: Italian ryegrass, herbicidal effect (Italian ryegrass [18]): 0 (Herbicidal rate of 5% or less (almost no effect)) | L: windgrass, herbicidal effect (windgrass [19]): 0 (Herbicidal rate of 5% or less (almost no effect)) | M: velvetleaf, herbicidal effect (velvetleaf [20]): 2 (Herbicidal rate of 20% or more and less than 40%) | N: redroot pigweed, herbicidal effect (redroot pigweed [21]): 5 (Herbicidal rate of 90% or more (almost completely withered)) | O: lambsquarters, herbicidal effect (lambsquarters [22]): 4 (Herbicidal rate of 70% or more and less than 90%) | P: chickweed, herbicidal effect (chickweed [23]): 0 (Herbicidal rate of 5% or less (almost no effect)) | R: persian speedwell, herbicidal effect (persian speedwell): 5 (Herbicidal rate of 90% or more (almost completely withered))
